Values quoted from earlier work, collected in patent US20110245283A1, “Methods for predicting the response to statins” (priority 2009, published 2011).
Where two headings read alike, the source gives them in different places.

Details: cited from earlier work

| Compound | Increased risk of toxicity or reduced statin effectiveness (with Atorva) | Severity of the interaction (with Atorva) | Increased risk of toxicity or reduced statin effectiveness (with Fluva) | Severity of the interaction (with Fluva) | Increased risk of toxicity or reduced statin effectiveness (with Lova) | Severity of the interaction (with Lova) | Increased risk of toxicity or reduced statin effectiveness (with Prava) | Severity of the interaction (with Prava) | Increased risk of toxicity or reduced statin effectiveness (with Simva) | Severity of the interaction (with Simva) | Severity of the interaction (with Rosuva) | Increased risk of toxicity or reduced statin effectiveness (with Rosuva) |
| --- | --- | --- | --- | --- | --- | --- | --- | --- | --- | --- | --- | --- |
| CC(C)(Oc1ccc(C2CC2(Cl)Cl)cc1)C(=O)O (stereo not shown) [Ciprofibrate] | (+) | 3 | (+) | 3 | (+) | 3 | (+) | 3 | (+) | 3 | – | – |
| CC(C)CN(C[C@@H](O)[C@H](Cc1ccccc1)NC(=O)O[C@H]1CCOC1)S(=O)(=O)c1ccc(N)cc1 [Amprenavir] | (+) | 2 | – | – | (+) | 3 | (+) | 2 | (+) | 3 | – | – |
| COc1ccccc1Oc1c(NS(=O)(=O)c2ccc(C(C)(C)C)cc2)nc(-c2ncccn2)nc1OCCO [Bosentan] | – | 2 | – | – | – | 2 | – | – | – | 2 | – | – |
| O=C1NC(=O)C(c2ccccc2)(c2ccccc2)N1 [Phenytoin] | – | 2 | (+) | 2 | – | – | – | – | – | 2 | – | – |
| CC(C)(Oc1ccc(CCNC(=O)c2ccc(Cl)cc2)cc1)C(=O)O [Bezafibrate] | (+) | 3 | (+) | 3 | (+) | 3 | (+) | 3 | (+) | 3 | – | – |
| Cc1c(C)c2c(c(C)c1O)CCC(C)(COc1ccc(CC3SC(=O)NC3=O)cc1)O2 (stereo not shown) [Troglitazone] | – | – | – | – | – | – | – | – | – | 1 | – | – |
| Colestipol | – | – | – | – | – | – | – | 2 | – | – | – | – |
| COCC(=O)O[C@]1(CCN(C)CCCc2nc3ccccc3[nH]2)CCc2cc(F)ccc2[C@@H]1C(C)C [Mibefradil] | (+) | 3 | (+) | 1 | (+) | 4 | (+) | 1 | (+) | 4 | – | – |
| CC(C)OC(=O)C(C)(C)Oc1ccc(C(=O)c2ccc(Cl)cc2)cc1 [Fenofibrate] | (+) | – | (+) | – | (+) | – | (+) | – | (+) | – | – | – |
| COc1ccc2[nH]c([S+]([O-])Cc3ncc(C)c(OC)c3C)nc2c1 (stereo not shown) [Omeprazole] | – | – | (+) | 1 | – | – | – | – | – | – | – | – |
| CCC[C@@]1(CCc2ccccc2)CC(O)=C([C@H](CC)c2cccc(NS(=O)(=O)c3ccc(C(F)(F)F)cn3)c2)C(=O)O1 [Tipranavir] | – | – | – | – | (+) | 3 | – | – | (+) | 3 | – | – |
| CCOC(=O)C(C)(C)Oc1ccc(Cl)cc1 [Clofibrate] | (+) | 3 | (+) | 3 | (+) | 3 | (+) | 3 | (+) | 3 | – | – |
| NC(=O)N1c2ccccc2C=Cc2ccccc21 [Carbamazepine] | – | – | – | – | – | – | – | – | – | 2 | – | – |
| CC(C)Nc1cccnc1N1CCN(C(=O)c2cc3cc(NS(C)(=O)=O)ccc3[nH]2)CC1 [Delavirdine] | (+) | 2 | – | – | – | – | – | – | – | – | – | – |
| CC[C@H]1OC(=O)[C@H](C)[C@@H](O[C@H]2C[C@@](C)(OC)[C@@H](O)[C@H](C)O2)[C@H](C)[C@@H](O[C@@H]2O[C@H](C)C[C@H](N(C)C)[C@H]2O)[C@](C)(OC)C[C@@H](C)C(=O)[C@H](C)[C@@H](O)[C@]1(C)O [Clarithromycin] | (+) | 3 | – | – | (+) | 3 | – | – | (+) | 3 | – | – |
| Magaldrate | – | – | – | – | – | – | – | – | – | – | 2 | – |
| CO[C@H]1/C=C/O[C@@]2(C)Oc3c(C)c(O)c4c(O)c(c(/C=N/N5CCN(C)CC5)c(O)c4c3C2=O)NC(=O)/C(C)=C\C=C\[C@H](C)[C@H](O)[C@@H](C)[C@@H](O)[C@@H](C)[C@H](OC(C)=O)[C@@H]1C [Rifampin] | – | – | – | 1 | – | – | – | – | – | 2 | – | – |
| COC(=O)N[C@H](C(=O)N[C@@H](Cc1ccccc1)[C@@H](O)CN(Cc1ccc(-c2ccccn2)cc1)NC(=O)[C@@H](NC(=O)OC)C(C)(C)C)C(C)(C)C [Atazanavir] | (+) | 3 | – | – | (+) | 3 | – | – | (+) | 3 | – | – |
| CC[C@H]1OC(=O)[C@H](C)C(=O)[C@H](C)[C@@H](O[C@@H]2O[C@H](C)C[C@H](N(C)C)[C@H]2O)[C@](C)(OC)C[C@@H](C)C(=O)[C@H](C)[C@H]2N(CCCCn3cnc(-c4cccnc4)c3)C(=O)O[C@]12C [Telithromycin] | (+) | 3 | – | – | (+) | 3 | – | – | (+) | 3 | – | – |
| CC(C)(C)NC(=O)[C@@H]1C[C@@H]2CCCC[C@@H]2CN1C[C@@H](O)[C@H](Cc1ccccc1)NC(=O)[C@H](CC(N)=O)NC(=O)c1ccc2ccccc2n1 [Saquinavir] | (+) | – | – | – | (+) | – | – | – | (+) | – | – | – |
| CCC(C)n1ncn(-c2ccc(N3CCN(c4ccc(OCC5COC(Cn6cncn6)(c6ccc(Cl)cc6Cl)O5)cc4)CC3)cc2)c1=O (stereo not shown) [Itraconazole] | (+) | 3 | – | – | (+) | 4 | – | – | (+) | 4 | 2 | (+) |
| Cc1c(O)cccc1C(=O)N[C@@H](CSc1ccccc1)[C@H](O)CN1C[C@H]2CCCC[C@H]2C[C@H]1C(=O)NC(C)(C)C [Nelfinavir] | (+) | 3 | – | – | (+) | 3 | – | – | (+) | 3 | – | – |
